Source: US8318815B2, “Method for treatment of tumors using nordihydroguaiaretic acid derivatives” (priority 1999, dated 2012)

Tests used:
[1] = test system: SP1-regulated HPV E6/E7 promoter; test: HPV16 LCR (P97 promoter) luciferase reporter assay in C33A cells; details: thirty hours after drug treatment
C3 cells = test: Cell cycle DNA content by propidium iodide flow cytometry, C3; details: C3, 72 hours
From the text: The cells were trypsinized, fixed with ethanol, stained with propidium iodide, and were subsequently analyzed by flow cytommetry. […] The indicated stages of the cell cycle are labeled and correspond to the relative cellular DNA compliment as determined by staining intensity.

[2] = Initial animal toxicity studies of M4N in mice; format: in vivo
CEM-T4 line = test: CEM-T4 cell growth; format: cell-based, human; details: three days
Description: (§1) FIG. 9. […] (a-d) C3, CEM-T4, C33a, and TC-1 cells were treated with different concentrations of M4N. The number of cells present at the initiation of the experiment is indicated as Day 0. After three days the number of viable cells were counted and plotted versus the M4N concentration. […] After 3 days, one-half of the M4N treated cells were given fresh media containing only 1% DMSO (M-D), while the rest of the cells were given fresh media with the same conditions (second media change). The cells were counted daily and plotted versus the time of treatment.

C33a cell line = test: C33a cell growth; format: cell-based, human; details: three days
Description: as §1

E6/E7 mRNA = test: RT-PCR of HPV-16 E6/E7 transcripts in C3 cells; details: 40 μM
Description: The RTPCR samples were removed after increasing cycles of amplification and resolved on an agarose gel.
The RT-PCR product was analyzed on a 2% agarose gel.

[3] = test system: HIV LTR promoter (Tat-transactivation); test: Tat-transactivation of HIV promoter activity in Cos cells, SEAP assay; format: cell-based; details: read-out: IC50 for inhibition of HIV Tat-regulated transactivation
From the text: As reported previously, methylated NDGA derivatives can block Sp1 binding to the enhancer sites of a variety of viral promoters including HIV, ICP4 of HSV, E6/E7 gene of HPV (8, 9, 10). We further tested the G4N effect on the Tat-transactivation of HIV promoter activity in Cos cells by the SEAP assay as previously described. […] There were 60-fold or more increase in SEAP expression when Cos cells were cotransfected with the CMV promoter driven Tat gene (8). Such Tat-driven ransactivation of the HIV LTR promoter activity was previously shown to be Sp1 regulated (7, 8). In the presence of G4N, we observed inhibition of HIV transactivation in a dose-dependent fashion (FIG. 14). […]. The differences perhaps are due to the chemical nature of the test compounds affecting the drug uptake to the cells.

HSV-1 = HSV-1 skin infection in guinea pig, topical treatment; format: in vivo
Description: The drug M4N was also tested in inhibition of HSV-1 replication in skin infections in guinea pigs. Guinea pig skin was pinched with needles and HSV-1 […] was applied topically to infect each pricked area. M4N was then applied to the pricked infected area following infection daily for 6 days.
Six areas of bared back skin of a guinea pig were punched sterilely with a 5=DIN needle. Two areas were infected with HSV-1 (HSV-C, culture supernatant, or isolated HSV in saline, HSV-SC). The other four areas were infected with HSV-SC.

caspase-3 = details: C3 cells, 72 hours

## COc1ccc(C[C@@H](C)[C@@H](C)Cc2ccc(OC)c(OC)c2)cc1OC [M4N, tetra-O-methylnordihydroguaiaretic acid]
[1]
  Sp1 regulated transcription initiation at the HPV E6/E7 promoter (specific luciferase activity): dramatically reduces
C3 cells
  cells showing G2/M DNA content: > 90%
[2]; given either subcutaneously or by IV
  non-toxic to mice at concentrations as high as: ≤ 375 mg/kg
[2]; given intraperitoneally
  non-toxic to mice at concentrations as high as: ≤ 300 mg/kg
CEM-T4 line
  growth of CEM-T4 line: blocked
C33a cell line
  growth of C33a cell line: blocked
E6/E7 mRNA; 5 to 72 hours, rtPCR
  levels of the E7 transcript: clear reduction
E6/E7 mRNA; 71 hours, following 30 cycles of amplification
  amplified E7 (321 bp) and E6 (204 bp) RT-PCR products: barely detectable
[3]
  IC50: 11 µM
HSV-1; 30 μl of 60 mg/ml in DMSO, five times per day for six days
  blisters in HSV-1 infected skin areas at day 6: no blisters
HSV-1; 4 days after the drug treatment
  shedding of the virus: no shedding of the virus
caspase-3
  caspase-3 cleavage: caspase-3 activation
